Values of other authors, collected in patent US7285563B2, “Heteroaromatic urea derivatives as VR-1 receptor modulators for treating pain” (priority 2002, dated 2007).

Molecular target: VR1 (Rattus norvegicus, UniProt O35433)
Sequence (O35433 whole entry): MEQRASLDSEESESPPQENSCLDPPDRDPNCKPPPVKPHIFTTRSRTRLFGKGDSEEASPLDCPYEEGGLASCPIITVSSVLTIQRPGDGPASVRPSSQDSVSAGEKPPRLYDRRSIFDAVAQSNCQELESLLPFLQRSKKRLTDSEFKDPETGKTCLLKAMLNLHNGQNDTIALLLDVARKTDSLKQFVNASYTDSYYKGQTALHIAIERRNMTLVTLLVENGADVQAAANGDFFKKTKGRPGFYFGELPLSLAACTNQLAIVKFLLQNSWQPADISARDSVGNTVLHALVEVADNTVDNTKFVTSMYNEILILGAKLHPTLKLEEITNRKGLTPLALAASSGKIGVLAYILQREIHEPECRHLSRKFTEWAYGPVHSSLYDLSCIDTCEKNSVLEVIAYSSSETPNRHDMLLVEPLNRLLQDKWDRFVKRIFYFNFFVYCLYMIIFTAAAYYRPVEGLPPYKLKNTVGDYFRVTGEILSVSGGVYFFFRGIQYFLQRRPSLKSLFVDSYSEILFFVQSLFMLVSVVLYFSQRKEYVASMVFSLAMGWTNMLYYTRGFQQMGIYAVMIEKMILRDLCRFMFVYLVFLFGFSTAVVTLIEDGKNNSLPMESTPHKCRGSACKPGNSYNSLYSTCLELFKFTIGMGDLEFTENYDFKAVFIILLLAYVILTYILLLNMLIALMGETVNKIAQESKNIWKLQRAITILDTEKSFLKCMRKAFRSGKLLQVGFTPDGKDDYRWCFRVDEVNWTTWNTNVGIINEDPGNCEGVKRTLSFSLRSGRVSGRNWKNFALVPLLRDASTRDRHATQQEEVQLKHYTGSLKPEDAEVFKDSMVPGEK

Row | affinity for VR1 (Walpole et al., J. Med. Chem., 37:1942, 1994) | SMILES | antagonist of VR1 (Wahl et al., Mol. Pharmacol., 59:9, 2001)
1 | – | C=C(C)[C@]12C[C@@H](C)[C@@]34O[C@](Cc5ccccc5)(O[C@@H]1[C@@H]3C=C(COC(=O)Cc1cc(I)c(O)c(OC)c1)C[C@]1(O)C(=O)C(C)=C[C@@H]41)O2 [Iodo-resiniferatoxin] | nanomolar antagonist
2 | micromolar affinity | Oc1cc2c(cc1O)CN(C(=S)NCCc1ccc(Cl)cc1)CCC2 [capsazepine] | –
